{
  "source": "paper PMC5681660",
  "about": "“Reduced hepatitis B and D viral entry using clinically applied drugs as novel inhibitors of the bile acid transporter NTCP” (Scientific Reports, 2017)",
  "key": {"human NTCP [1]": {"target": "T1, human NTCP (Homo sapiens, UniProt Q14973)", "T1 sequence (Q14973 1-349)": "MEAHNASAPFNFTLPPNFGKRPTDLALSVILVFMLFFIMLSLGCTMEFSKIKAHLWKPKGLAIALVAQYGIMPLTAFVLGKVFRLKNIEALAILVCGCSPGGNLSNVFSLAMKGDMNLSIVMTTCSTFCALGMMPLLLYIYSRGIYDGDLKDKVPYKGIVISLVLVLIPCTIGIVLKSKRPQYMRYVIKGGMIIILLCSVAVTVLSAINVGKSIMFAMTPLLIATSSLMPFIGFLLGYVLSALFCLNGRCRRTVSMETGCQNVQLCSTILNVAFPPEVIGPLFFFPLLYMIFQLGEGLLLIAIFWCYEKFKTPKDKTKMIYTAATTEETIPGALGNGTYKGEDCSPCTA", "assay": "Screening taurocholate uptake assay (96-well, [14C]taurocholate, 10 µM drug)"}, "human NTCP [2]": {"target": "T1, human NTCP", "assay": "Myrcludex B-FITC binding by confocal microscopy in U2OS-HA-hNTCP cells", "design": "HA; expressed in transfected cells", "description": "After 24 hours, medium was aspirated and cells were washed once with 300 µl Leibovitz’s L-15 Medium (Invitrogen). A 30 minute incubation period followed in which all cells were incubated with 0.2 µM Myrcludex B-FITC with or without drug (1, 10, 100 µM) and Hoechst (1/1000) in 300 µL Leibovitz’s L-15 Medium. Cells were washed twice with Leibovitz’s L-15 Medium and subsequently 400 µL Leibovitz’s L-15 Medium was added. Live cell fluorescent imaging was performed using a Leica SP8X-SMD confocal microscope with fully enclosed incubation at 37 °C. A 63x oil objective was used and images were captured while the cells were consecutively excited at 490 nm (FITC) 350 nm (Hoechst). ImageJ software (National Insititutes of Health, Bethesda, MD) was employed for data analysis."}, "[3]": {"tested_on": "patient-derived HBV (genotype B)", "assay": "Serum-derived HBV genotype B infection of HepaRG cells stably transduced with hNTCP", "assay_type": "cell-based, hepatitis B virus", "details": "NTCP-overexpressing HepaRG cells", "description": "Supplementary materials and methods Serum-derived HBV genotype B infection study For these experiments HepaRG cells stably transduced with hNTCP were used. Differentiation and serum-derived HBV genotype B infection were performed following similar protocols as described for wildtype HepaRG cells in the main materials&methods with the following changes: 8 hours infection and supernatant collection for HBeAg and HBsAg analysis from day 9 to 12. Total RNA was extracted from cells 12 days after infection using the NucleoSpin RNA isolation kit (Macherey-Nagel). Reverse transcription was performed with the High-Capacity cDNA Reverse Transcription Kit (Thermo Scientific). mRNA levels were determined by qPCR using the iTaq™ Universal SYBR® Green Supermix (Bio-rad) with HBV specific primers (forward: 5’-[…]-3’; reverse: 5’-[…]-3’). GAPDH mRNA levels were used for normalization (forward: 5’-[…]-3’; reverse: 5’-[…]-3’). Total DNA was extracted from cells 12 days after infection using the NucleoSpin Tissue kit (Macherey-Nagel). HBV DNA levels were determined by qPCR PerfeCTa qPCR Toughmix (Quanta Biosciences) with HBV specific primers (forward: 5’- […]-3’; reverse: 5’- […]-3’) and a probe (5’-TxRed-[…]-BHQ2-3’). β-globin levels were used for normalization (forward: 5’- […]-3’; reverse: 5’- […]-3’; probe: 5’-HEX- […]-BHQ1-3’). […]"}, "[4]": {"details": "sulfasalazine 1 gram; ref 5 (supplement); cited from earlier work"}, "in vitro": {"assay": "in vitro", "details": "human"}},
  "note": "Several values for one entry are separate records, joined by “and”; a condition that tells them apart may be missing. Equal values may be shown once. Entries after “also recorded” stand apart in the source; their conditions may differ.",
  "data": [
    {"smiles": "O=C(O)c1cc(/N=N/c2ccc(S(=O)(=O)Nc3ccccn3)cc2)ccc1O", "note": "[Sulfasalazine]", "values": [
      {"measurement": "Ranking score", "setting": "human NTCP [1]; ranking over the functional and the binding screening assay", "result": 34.8999},
      {"measurement": "B-score functional assay", "setting": "human NTCP [1]; screening taurocholate uptake, 10 µM drug", "result": -3.903},
      {"measurement": "HBV infection in HepaRG cells (in words)", "setting": "HBV; HBeAg, HBsAg, HBcAg, concentration-dependent", "result": "reduced HBV/HDV infection; also recorded: reduce"},
      {"measurement": "concentration effective in reducing HBsAg", "setting": "HBV; HepaRG cells infected with HBV, supernatant day 7 to 10", "result": "≥ 50", "unit": "µM"},
      {"measurement": "number of HBcAg positive stained cells", "setting": "HBV; HepaRG cells, day 10 post HBV infection, 50 µM", "result": "mild reduction"},
      {"measurement": "Myrcludex B-FITC fluorescence / binding to U2OS-HA-hNTCP cells (in words)", "setting": "human NTCP [2]; co-administration with increasing amounts of drug", "result": "reduced"},
      {"measurement": "≥50% loss of Myrcludex B binding to hNTCP (concentration)", "setting": "human NTCP [2]; confocal microscopy, 0.2 µM Myrcludex B-FITC, drug 1, 10, 100 µM, concentration at which binding inhibited minimally 50%", "result": "≥1", "unit": "µM"},
      {"measurement": "HBeAg, HBsAg, HBV DNA and HBV RNA after serum-derived HBV infection", "setting": "[3]", "result": "reduced HBeAg, HBsAg, HBV DNA, and HBV RNA in a dose-dependent fashion"},
      {"measurement": "HBeAg, HBsAg, HBV DNA and HBV RNA after serum-derived HBV infection", "setting": "[3]; listed as sulfasalazine", "result": "reduced by sulfasalazine in a dose-dependent fashion"},
      {"measurement": "Expected serum concentration", "setting": "[4]", "result": "6 µg/ml and ~15 µM"},
      {"measurement": "viability at 2 h, 1 µM", "setting": "in vitro", "result": "100 ± 6.9", "unit": "%"},
      {"measurement": "viability at 2 h, 10 µM", "setting": "in vitro", "result": "101 ± 8.4", "unit": "%"},
      {"measurement": "viability at 2 h, 100 µM", "setting": "in vitro", "result": "97.8 ± 8", "unit": "%"}
    ]}
  ]
}
